In paper PMC4893617 (Scientific Reports, 2016):
Structures can show the parent of a compound that is named as a salt.

Columns and labels:
[1] = target: T1, ChuaMOX (mandelonitrile oxidase) (Chamberlinius hualienensis, UniProt A0A173MZJ8); assay: biochemical; set-up: Oxidase activity of purified native ChuaMOX, ABTS read-out, pH 5, compound added at 1 mM; conditions: for remaining activity at 1000 µM: read-out: % of control remaining
T1 construct: native enzyme purified from millipede bodies without guts; ORF 593 residues incl; 17-residue signal peptide; predicted mature 62,818 Da; 67 kDa SDS-PAGE, 65 kDa gel filtration; monomeric, glycosylated, FAD
T1 sequence (A0A173MZJ8 entry or part of it): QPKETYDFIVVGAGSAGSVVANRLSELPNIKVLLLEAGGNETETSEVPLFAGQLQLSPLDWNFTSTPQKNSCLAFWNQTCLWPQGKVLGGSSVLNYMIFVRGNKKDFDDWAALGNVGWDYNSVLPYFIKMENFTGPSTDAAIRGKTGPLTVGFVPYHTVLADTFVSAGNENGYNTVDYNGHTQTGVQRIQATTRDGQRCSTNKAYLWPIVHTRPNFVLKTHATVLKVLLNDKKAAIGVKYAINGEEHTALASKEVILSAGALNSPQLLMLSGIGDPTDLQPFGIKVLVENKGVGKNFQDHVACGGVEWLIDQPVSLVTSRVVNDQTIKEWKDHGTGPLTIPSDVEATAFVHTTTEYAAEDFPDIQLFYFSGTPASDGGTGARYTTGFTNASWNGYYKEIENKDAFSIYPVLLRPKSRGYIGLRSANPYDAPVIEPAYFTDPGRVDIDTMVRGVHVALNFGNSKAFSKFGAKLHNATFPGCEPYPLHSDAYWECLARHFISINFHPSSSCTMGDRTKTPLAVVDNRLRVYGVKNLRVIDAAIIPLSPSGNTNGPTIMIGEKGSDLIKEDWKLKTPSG
Method: Enzymatic activity decreased in conditions approaching neutral pH, and it was lowest at a pH of 7 (Fig. 1c). After one hour of incubation at 25 °C, 80% of the ChuaMOX activity remained over a range of pH values between 3 and 10 (Fig. 1d). […] After one hour of incubation at pH 8, 80% of the activity remained between 25 °C and 50 °C, and all activity was lost at 70 °C (Fig. 1f). […] (Table 1). The enzyme required [compound left out] as a substrate rather than [compound left out] (see Supplementary Table S3). […] The chemicals (see Supplementary Table S5) were purchased from various suppliers (Sigma-Aldrich, Dojindo, Alfa Aesar, and Tokyo Chemical Industries) or synthesized as described below and used as test substrates, inhibitors, and metal salts. Nitriles were prepared from their corresponding aldehydes by way of bisulfite adducts according to Young et al.[23].

[2] = target: T1, ChuaMOX (mandelonitrile oxidase); assay type: binding
[3] = target: T1, ChuaMOX (mandelonitrile oxidase); assay type: biochemical

| Compound | remaining activity at 1000 µM [1] | other results |
| --- | --- | --- |
| CC(C)NNC(=O)c1ccncc1 [Iproniazid] | 80% | – |
| C#CCN(C)Cc1ccccc1 [Pargyline] | 100% | – |
| c1cnc2c(c1)ccc1cccnc12 [1,10-Phenanthroline] | 84.1% | – |
| O=C(O)CI [Iodoacetic acid] | 71.4% | – |
| Cc1cc2nc3c(=O)[nH]c(=O)nc-3n(C[C@H](O)[C@H](O)[C@H](O)COP(=O)(O)OP(=O)(O)OC[C@H]3O[C@@H](n4cnc5c(N)ncnc54)[C@H](O)[C@@H]3O)c2cc1C [flavin adenine dinucleotide] | – | thin layer chromatography of the prosthetic group; UV-visible spectrum of purifi [2]: Thin layer chromatography (TLC) identified the prosthetic group as flavin adenine dinucleotide (FAD) |
| Oc1cccc2cccnc12 [8-Hydroxyquinoline] | – | % of control remaining ([1]; pH 5, standard assay, 1000 µM, inhibitor): 56.0% |
| NNC(=O)c1ccncc1 [Isoniazid] | 88% | – |
| NNC(N)=O [Semicarbazide hydrochloride] | 92% | – |
| N#CC(O)c1ccccc1 (racemic) [racemic mandelonitrile] | – | Km [3]: 2100 µM |
| c1ccc(-c2ccccn2)nc1 [2,2'-Bipyridyl] | 87.3% | – |
| CCN1C(=O)C=CC1=O [N-Ethylmaleimide] | 96.8% | – |
